Reference: the NIST ThermoML archive (doi:10.1016/j.tca.2006.01.013)

Experiment: xn = mol fraction of the nth substance listed
Conditions: 101 kPa, Liquid, Vibrating tube method

NCCN [ethane-1,2-diamine] + O
mass density [kg/m3]
Conditions	288.15 K	293.15 K	298.15 K	303.15 K	308.15 K	313.15 K	318.15 K
x2 = 0.0401	905.79	901.13	896.45	891.76	887.06	882.34	877.6
x2 = 0.0797	909.79	905.15	900.49	895.82	891.14	886.43	881.71
x2 = 0.1199	914.18	909.56	904.92	900.27	895.6	890.91	886.2
x2 = 0.1598	918.88	914.28	909.66	905.03	900.38	895.71	891.01
x2 = 0.2003	923.88	919.29	914.69	910.07	905.43	900.77	896.09
x2 = 0.25	930.08	925.52	920.93	916.33	911.71	907.07	902.4
x2 = 0.2999	936.78	932.23	927.67	923.08	918.47	913.84	909.18
x2 = 0.3497	944.11	939.57	935.02	930.44	925.84	921.21	916.56
x2 = 0.3998	951.74	947.2	942.65	938.08	933.48	928.86	924.21
x2 = 0.4504	959.71	955.18	950.64	946.07	941.48	936.86	932.22
x2 = 0.5001	967.93	963.41	958.87	954.3	949.72	945.1	940.46
x2 = 0.5499	976.43	971.92	967.39	962.83	958.26	953.66	949.04
x2 = 0.5998	984.56	980.1	975.61	971.09	966.55	961.99	957.4
x2 = 0.6499	991.92	987.54	983.14	978.72	974.26	969.77	965.25
x2 = 0.7004	998.03	993.83	989.6	985.34	981.04	976.7	972.33
x2 = 0.7499	1001.68	997.76	993.81	989.81	985.76	981.67	977.53
x2 = 0.8	1002.5	999	995.45	991.83	988.16	984.43	980.63
x2 = 0.84	1001.38	998.31	995.17	991.96	988.67	985.31	981.87
x2 = 0.88	999.21	996.66	994.01	991.27	988.42	985.47	982.43
x2 = 0.9193	997.06	995.08	992.96	990.71	988.32	985.81	983.17
x2 = 0.9599	996.39	995.01	993.42	991.65	989.7	987.59	985.32
